In patent US8946286B2, “Organic amine salts of aminobenzoic acid derivatives and method for producing same” (Nissan Chemical Industries, Ltd., priority 2010, dated 2015):

Experiments:
[1] = Thermal stability test; type: physicochemical; conditions: 60° C. for 2 weeks without humidity control, brown glass vessel
Protocol: (§1) In the following Assay Examples 2 to 4, the stability of the ethanolamine salt (1), tromethamine salt (2), choline salt (3) and potassium salt (4) of 3-{[((2E)-2-{1-[5-(4-t-butylphenyl)-4-hydroxy-3-thienyl]ethylidene}hydrazino)carbonothioyl]amino}benzoic acid to temperature, humidity and light was evaluated, by related substance increase (%), weight change (%) or TG loss change (%) through appropriate selection.
(§2) Related substance increase (%)
(§3) Each sample was analyzed by high performance liquid chromatography before and after treatment, and the sum of area percentages for analogues in each sample were calculated. • Column: L-column ODS (Chemicals Evaluation and Research Institute, Japan inner diameter 4.6 mm, length 250 mm) • Detector: UV absorptiometer (wavelength; […]) • Column temperature: 40° C. • Flow rate: 1.0 mL/min • Injection volume: 10 μL • Mobile phase: (a) 0.01 M ammonium formate buffer (pH 3.0) • (b) acetonitrile Measurements were carried out with a gradient between the above (a) and (b) solutions.
The thermal stability of the ethanolamine salt (1), tromethamine salt (2), choline salt (3) and potassium salt (4) of 3-{[((2E)-2-{1-[5-(4-t-butylphenyl)-4-hydroxy-3-thienyl]ethylidene}hydrazino)carbonothioyl]amino}benzoic acid was evaluated as follows.
Each sample was put in a brown glass vessel, and the vessel was left at 60° C. for 2 weeks without humidity control. After 2 weeks, the sample was withdrawn, and the related substance increase (%) was evaluated.

[2] = Hygrostability test; type: physicochemical; conditions: 25° C./90% RH for 2 weeks, vessel left open
Protocol: as §1, §2, §3
(§4) Each sample was weighed before and after treatment, and weight gain was calculated in percentages from the difference in weight. The magnitude of weight change during treatment is an indication of stability of a compound. TG loss change (%);
(§5) About 5 mg of each sample was weighed out before and after treatment and put in an aluminum pan, and TG measurements were performed with the pan left open. The rate of TG loss of each sample was calculated in percentages (%). The measuring conditions are shown below.
(§6) Measuring Conditions; • Instrument:TG8120 (Rigaku Corporation) • Measuring range: room temperature to 105° C. • Heating rate: 5° C./min • Atmosphere: air 50 mL/min
(§7) An increase in TG loss from the initial value indicates possibility of moisture absorption and degradation of a compound. Therefore, the magnitude of change in TG loss is an indication of stability of a compound.
The hygrostability of the ethanolamine salt (1), tromethamine salt (2), choline salt (3) and potassium salt (4) of 3-{[((2E)-2-{1-[5-(4-t-butylphenyl)-4-hydroxy-3-thienyl]ethylidene}hydrazino)carbonothioyl]amino}benzoic acid was evaluated as follows.
About 1 g of each sample was put in a transparent glass vessel and maintained at 25° C./90% RH (relative humidity) for 2 weeks with the vessel left open. After 2 weeks, the sample was withdrawn, and the related substance increase (%), weight change (%) and TG loss change (%) were evaluated.

[3] = Photostability test; type: physicochemical; conditions: 25° C./60% RH, vessel left open, light of 200 W·hr·m^2 for 57 hours
Protocol: as §1, §2, §3, §4, §5, §6, §7
The photostability of the ethanolamine salt (1), tromethamine salt (2), choline salt (3) and potassium salt (4) of 3-{[((2E)-2-{1-[5-(4-t-butylphenyl)-4-hydroxy-3-thienyl]ethylidene}hydrazino)carbonothioyl]amino}benzoic acid was evaluated as follows.
About 1 g of each sample was put in a transparent glass vessel at 25° C./60% RH (relative humidity) with the vessel left open and irradiated with light of 200 W·hr·m^2 for 57 hours. […], the sample was withdrawn, and the related substance increase (%), weight change (%) and TG loss change (%) were evaluated.

[4] = Initial values of TG loss and related substances before treatment; type: physicochemical; conditions: initial value before treatment; for Related substances (%): HPLC, sum of area percentages for analogues; for TG loss (%): TG room temperature to 105° C.
Protocol: as §2, §3, §5, §6

[5] = Oral absorption test on dogs; type: in vivo; conditions: beagle dogs, oral capsule, 360 mg/dog; ratio to Compound A (free form)
Protocol: Oral Absorption Test on Dogs
The free form (Compound A), potassium salt, organic amine salts (ethanolamine salt and tromethamine salt) and salt of quaternary ammonium ion (choline salt) of 3-{[((2E)-2-{1-[5-(4-t-butylphenyl)-4-hydroxy-3-thienyl]ethylidene}hydrazino)carbonothioyl]amino}benzoic acid in capsule were orally administered to beagle dogs at a dose of 360 mg/dog. 0.5, 1, 2, 4, 6, 8 and 24 hours after the administration, blood was collected to obtain plasma samples. Their concentrations in dog plasma were measured by LC/MS/MS. Using the plasma concentrations obtained, maximum plasma concentration (Cmax), time to maximum plasma concentration (Tmax) and area under the plasma concentration-time curve were calculated.
In FIG. 1, * represents Compound A (Free Acid), ♦ represents the potassium salt (Potassium Salt), □ represents the choline salt (Choline Salt), ▴ represents ethanolamine (Ethanolamine Salt), and ◯ represents the tromethamine salt (Tromethamine Salt).

| SMILES | Related substance increase [1] [%] | Related substance increase [2] [%] | TG loss change [2] [%] | Weight change [2] [%] | Related substance increase [3] [%] | TG loss change [3] [%] | Weight change [3] [%] | Related substances (%) [4] [%] | TG loss (%) [4] [%] | area under the plasma concentration-time curve (AUC), times better than Compound A [5] [times] | maximum plasma concentration (Cmax), times better than Compound A [5] [times] |
| --- | --- | --- | --- | --- | --- | --- | --- | --- | --- | --- | --- |
| C/C(=N\NC(=S)Nc1cccc(C(=O)O)c1)c1csc(-c2ccc(C(C)(C)C)cc2)c1O.NCCO [(1), Ethanolamine salt of 3-{[((2E)-2-{1-[5-(4-t-butylphenyl)-4-hydroxy-3-thienyl]ethylidene}hydrazino)carbonothioyl]amino}benzoic acid] | 0.16 | 0.04 | −0.26 | 0.29 | −0.01 | −0.25 | 0.23 | 0.34 | 0.64 |  |  |
| C/C(=N\NC(=S)Nc1cccc(C(=O)O)c1)c1csc(-c2ccc(C(C)(C)C)cc2)c1O.NC(CO)(CO)CO [(2), Tromethamine salt of 3-{[((2E)-2-{1-[5-(4-t-butylphenyl)-4-hydroxy-3-thienyl]ethylidene}hydrazino)carbonothioyl]amino}benzoic acid] | −0.01 | −0.03 | −0.13 | 0.00 | 0.01 | −0.13 | 0.01 | 0.07 | 0.11 |  |  |
| C/C(=N\NC(=S)Nc1cccc(C(=O)[O-])c1)c1csc(-c2ccc(C(C)(C)C)cc2)c1O.C[N+](C)(C)CCO [(3), Choline salt of 3-{[((2E)-2-{1-[5-(4-t-butylphenyl)-4-hydroxy-3-thienyl]ethylidene}hydrazino)carbonothioyl]amino}benzoic acid] | −0.01 | −0.01 | 0.66 | 0.10 | 0.00 | 0.58 | 0.17 | 0.34 | 1.19 |  |  |
| C/C(=N\NC(=S)Nc1cccc(C(=O)[O-])c1)c1csc(-c2ccc(C(C)(C)C)cc2)c1O.[K+] [(4), Potassium 3-{[((2E)-2-{1-[5-(4-t-butylphenyl)-4-hydroxy-3-thienyl]ethylidene}hydrazine)carbonothioyl]amino}benzoate, reference compound] | 2.46 | 0.39 | 7.86 | 23.22 | 0.27 | 3.16 | 9.36 | 1.86 | 3.18 | 6.3 | 7.2 |
